Data taken from patent US20250163104A1, “MACROCYCLIC IMMUNOMODULATORS” (priority 2021, published 2025).
*1 amine or outer side, *2 acyl side, *3 side chain or, on linkers, in order; H or OH if unused. Where a SMILES comes first, the peptide text is derived from it. Bridges are numbered along the chain shown (N, C = ends). [ ]: non-standard residue; d: D form. The star is where a group is joined. ξ: configuration not given here. Phe(3-CF3) = N[C@@H](Cc1cccc(C(F)(F)F)c1)C(=O)O; Phe(4-COOH) = N[C@@H](Cc1ccc(C(=O)O)cc1)C(=O)O; Bip = N[C@@H](Cc1ccc(-c2ccccc2)cc1)C(=O)O; Phe(3-Me) = Cc1cccc(C[C@H](N)C(=O)O)c1; βAsp = O=C(O)[C@H](CC(=O)[*:2])N[*:1]; 4Pal = N[C@@H](Cc1ccncc1)C(=O)O; Cha = N[C@@H](CC1CCCCC1)C(=O)O; Cit = NC(=O)NCCC[C@H](N)C(=O)O; Ile(3ξ) = CCC(C)[C@H](N)C(=O)O; NMeDab = CN[C@@H](CCN)C(=O)O; Carboxymethyl = O=C(O)C*; Orn = NCCC[C@H](N)C(=O)O; Pra = C#CC[C@H](N)C(=O)O; Dab = NCC[C@H](N)C(=O)O; Dap = NC[C@H](N)C(=O)O; ξPra = C#CCC(N)C(=O)O; Propargyl = C#CC*

The molecules below were run against T1, human PD-1 / PD-L1-Ig binding on Jurkat cell line over-expressing human PD-1 (Jurkat-PD-1) (Homo sapiens, UniProt Q15116) (assay: Jurkat-PD-1 Cell Binding High-Content Screening Assay (CBA)). Conditions: Jurkat-PD-1 cells, PE-labeled PD-L1-Ig 20 nM final; read-out: Jurkat HPD1_PDL1 IC50.
T1 construct: expressed in transfected cells; host or cells: Jurkat
T1 sequence (Q15116 25-288): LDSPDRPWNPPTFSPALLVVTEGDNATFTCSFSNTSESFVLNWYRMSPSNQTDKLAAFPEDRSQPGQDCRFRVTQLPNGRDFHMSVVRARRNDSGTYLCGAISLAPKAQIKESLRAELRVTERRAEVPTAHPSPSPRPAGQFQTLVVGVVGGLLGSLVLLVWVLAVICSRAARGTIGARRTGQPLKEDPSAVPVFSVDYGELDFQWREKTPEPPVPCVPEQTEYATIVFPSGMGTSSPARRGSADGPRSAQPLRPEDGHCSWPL
Type: cell-based
Procedure, shortened: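 Jurkat-hPD-1 cells in DMEM with 10% fetal calf serum receive test compound and are held at 37° C for 2 h. PE-labeled PD-L1-Ig is added at 20 nM final and left for 1 hour. Cells are then fixed and Hoechst-stained, and binding is measured by imaging.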

| IC50 | Structure (SMILES) |
| --- | --- |
| 129 nM | CC[C@H](C)[C@@H]1NC(=O)[C@H](Cc2ccc(-c3ccccc3)cc2)NC(=O)[C@H](C(C)C)NC(=O)[C@H](Cc2c[nH]c3ccccc23)NC(=O)[C@H](CC(=O)O)NC(=O)[C@H](Cc2ccc(OCC(=O)O)cc2)NC(=O)[C@H](Cc2ccncc2)NC(=O)CSC[C@@H](C(=O)N[C@@H](C)C(N)=O)NC(=O)[C@H]([C@@H](C)O)NC(=O)[C@H](C(C)C)NC(=O)[C@H](CC(C)C)NC(=O)[C@H](CCN)NC(=O)[C@@H](CC(C)C)NC(=O)[C@H](CCCN)NC1=O [Compound 1057] ({CH2CO}-[4Pal]Y(Carboxymethyl)DWV[Bip]I[Orn][dL][Dab]LVTCA-NH2; thioether N-14) |
| 9.1 nM | CCCC[C@H]1NC(=O)[C@H](CCCN)NC(=O)[C@H](C(C)C)NC(=O)[C@H](Cc2ccc(-c3ccccc3)cc2)NC(=O)[C@H](C(C)C)NC(=O)[C@H](Cc2c[nH]c3ccccc23)NC(=O)[C@H](CC(=O)O)NC(=O)[C@H](Cc2ccc(OCC(=O)O)cc2)NC(=O)[C@H](Cc2ccncc2)NC(=O)CSC[C@@H](C(=O)N[C@@H](C)C(N)=O)NC(=O)[C@H]([C@@H](C)O)NC(=O)[C@H](C(C)C)NC(=O)[C@H](CC2CCCCC2)NC(=O)[C@H](CCN)NC1=O [Compound 1693] |
| 10.1 nM | CC(C)C[C@@H]1NC(=O)[C@H](Cc2c[nH]c3ccccc23)NC(=O)[C@H](CC(=O)O)NC(=O)[C@H](Cc2ccncc2)NC(=O)[C@H](CN)NC(=O)CSC[C@@H](C(=O)NCC(N)=O)NC(=O)[C@H](CO)NC(=O)[C@H](C(C)C)NC(=O)[C@H](CC2CCCCC2)NC(=O)[C@H](CC(N)=O)NC(=O)[C@@H](CC(C)C)NC(=O)[C@H](CN)NC(=O)[C@H](C(C)C)NC(=O)[C@H](Cc2ccc(-c3ccccc3)cc2)NC1=O [Compound 1395] ({CH2CO}-[Dap][4Pal]DWL[Bip]V[Dap][dL]N[Cha]VSCG-NH2; thioether N-14) |
| 24.4 nM | CC(C)C[C@H]1NC(=O)[C@H](CCCN)NC(=O)[C@H](CCC(=O)O)NC(=O)[C@H](Cc2ccc(-c3ccccc3)cc2)NC(=O)[C@H](C(C)C)NC(=O)[C@H](Cc2cccc(C(F)(F)F)c2)NC(=O)[C@H](CC(=O)O)NC(=O)[C@H](Cc2ccncc2)NC(=O)[C@H](Cc2ccccc2)NC(=O)CSC[C@@H](C(=O)N[C@@H](C)C(N)=O)NC(=O)[C@H]([C@@H](C)O)NC(=O)[C@H](C(C)C)NC(=O)[C@H](CC2CCCCC2)NC(=O)[C@H](CCN)NC1=O [Compound 1463] ({CH2CO}-F[4Pal]D[Phe(3-CF3)]V[Bip]E[Orn][dL][Dab][Cha]VTCA-NH2; thioether N-14) |
| 84.4 nM | CC(C)C[C@@H]1NC(=O)[C@H](CCN)NC(=O)[C@@H](CC(C)C)NC(=O)[C@H](CCCN)NC(=O)[C@H](Cc2ccc(-c3ccccc3)cc2)NC(=O)[C@H](Cc2ccc(-c3ccccc3)cc2)NC(=O)[C@H](C(C)C)NC(=O)[C@H](Cc2c[nH]c3ccccc23)NC(=O)[C@H](CC(=O)O)NC(=O)[C@H](Cc2ccc(OCC(=O)O)cc2)NC(=O)[C@H](Cc2ccc(OCC(=O)O)cc2)NC(=O)CSC[C@@H](C(=O)N[C@@H](C)C(N)=O)NC(=O)[C@H]([C@@H](C)O)NC(=O)[C@H](C(C)C)NC1=O [Compound 1246] ({CH2CO}-Y(Carboxymethyl)Y(Carboxymethyl)DWV[Bip][Bip][Orn][dL][Dab]LVTCA-NH2; thioether N-14) |
| 5.8 nM | CCNC(=O)[C@H](CCN)NC(=O)[C@@H]1CSCC(=O)N[C@@H](CN)C(=O)N[C@@H](Cc2ccc(OCC(=O)O)cc2)C(=O)N[C@@H](CC(=O)O)C(=O)N[C@@H](Cc2cccc(C)c2)C(=O)N[C@@H](C(C)C)C(=O)N[C@@H](Cc2ccc(-c3ccccc3)cc2)C(=O)N[C@@H](CCCNC(N)=O)C(=O)N[C@@H](CCCN)C(=O)N[C@H](CC(C)C)C(=O)N[C@@H](CCN)C(=O)N[C@@H](CC2CCCCC2)C(=O)N[C@@H](C(C)C)C(=O)N[C@@H]([C@@H](C)O)C(=O)N1 [Compound 2009] ({CH2CO}-[Dap]Y(Carboxymethyl)D[Phe(3-Me)]V[Bip][Cit][Orn][dL][Dab][Cha]VTC[Dab]-NHEt; thioether N-14) |
| 2.4 nM | C#CCOc1ccc(C[C@@H]2NC(=O)[C@H](Cc3cccc(C)c3)NC(=O)[C@H](CC(=O)O)NC(=O)[C@H](Cc3ccc(OCC(=O)O)cc3)NC(=O)[C@H]([C@@H](C)O)NC(=O)CSC[C@@H](C(=O)N[C@@H](CCN)C(N)=O)NC(=O)[C@H](CCC(=O)O)NC(=O)[C@H](C(C)C)NC(=O)[C@H](CC3CCCCC3)NC(=O)[C@H](CCN)NC(=O)[C@@H](CC(C)C)NC(=O)[C@H](CCCN)NC(=O)[C@H](Cc3ccc(OCC(=O)O)cc3)NC(=O)[C@H](Cc3ccc(-c4ccccc4)cc3)NC2=O)cc1 [Compound 1829] ({CH2CO}-TY(Carboxymethyl)D[Phe(3-Me)]Y(Propargyl)[Bip]Y(Carboxymethyl)[Orn][dL][Dab][Cha]VEC[Dab]-NH2; thioether N-14) |
| 68.9 nM | C#CC[C@H](NC(=O)C[C@H](NC(=O)[C@H](CCN)NC(=O)[C@@H]1CSCC(=O)N[C@@H](Cc2ccncc2)C(=O)N[C@@H](Cc2ccc(C(=O)O)cc2)C(=O)N[C@@H](CC(=O)O)C(=O)N[C@@H](Cc2c[nH]c3ccccc23)C(=O)N[C@@H](C(C)C)C(=O)N[C@@H](Cc2ccc(-c3ccccc3)cc2)C(=O)N[C@@H]([C@@H](C)CC)C(=O)N[C@@H](CCCN)C(=O)N[C@H](CC(C)C)C(=O)N[C@@H](CCN)C(=O)N[C@@H](CC(C)C)C(=O)N[C@@H](C(C)C)C(=O)N[C@@H]([C@@H](C)O)C(=O)N1)C(=O)O)C(=O)O [Compound 1770] ({CH2CO}-[4Pal][Phe(4-COOH)]DWV[Bip]I[Orn][dL][Dab]LVTC[Dab][βAsp][Pra]-OH; thioether N-14) |
| 30 nM | CC(C)C[C@H]1NC(=O)[C@H](CCCN)NC(=O)[C@H](CCC(=O)O)NC(=O)[C@H](Cc2ccc(-c3ccccc3)cc2)NC(=O)[C@H](C(C)C)NC(=O)[C@H](Cc2c[nH]c3ccccc23)NC(=O)[C@H](CC(=O)O)NC(=O)[C@H](Cc2ccc(OCC(=O)O)cc2)NC(=O)[C@H](CN)NC(=O)CSC[C@@H](C(=O)N[C@@H](C)C(N)=O)NC(=O)[C@H]([C@@H](C)O)NC(=O)[C@H](C(C)C)NC(=O)[C@H](CC2CCCCC2)NC(=O)[C@H](CO)NC1=O [Compound 1516] ({CH2CO}-[Dap]Y(Carboxymethyl)DWV[Bip]E[Orn][dL]S[Cha]VTCA-NH2; thioether N-14) |
| 190 nM | Cc1cccc(C[C@@H]2NC(=O)[C@H](CC(N)=O)NC(=O)[C@H](Cc3ccc(C(=O)O)cc3)NC(=O)[C@H](CC(C)C)NC(=O)CSC[C@@H](C(=O)N[C@@H](CCN)C(N)=O)NC(=O)[C@H](CCC(=O)O)NC(=O)[C@H](C(C)C)NC(=O)[C@H](CC3CCCCC3)NC(=O)[C@H](CCN)NC(=O)[C@@H](CC(C)C)NC(=O)[C@H](CCCN)NC(=O)[C@H](Cc3ccc(C(=O)O)cc3)NC(=O)[C@H](Cc3ccc(-c4ccccc4)cc3)NC(=O)[C@H](Cc3ccc(C(=O)O)cc3)NC2=O)c1 [Example 2721] ({CH2CO}-L[Phe(4-COOH)]N[Phe(3-Me)][Phe(4-COOH)][Bip][Phe(4-COOH)][Orn][dL][Dab][Cha]VEC[Dab]-NH2; thioether N-14) |
| 7.1 nM | CC[C@H](C)[C@@H]1NC(=O)[C@H](Cc2ccc(-c3ccccc3)cc2)NC(=O)[C@H](C(C)C)NC(=O)[C@H](Cc2cccc(C)c2)NC(=O)[C@H](CC(=O)O)NC(=O)[C@H](Cc2ccc(C(=O)O)cc2)NC(=O)[C@H](Cc2ccncc2)NC(=O)CSC[C@@H](C(=O)N[C@@H](C)C(N)=O)NC(=O)[C@H]([C@@H](C)O)NC(=O)[C@H](C(C)C)NC(=O)[C@H](CC2CCCCC2)NC(=O)[C@H](CCN)NC(=O)[C@@H](CC(C)C)NC(=O)[C@H](CCCN)NC1=O [Compound 1192] |
| 54.8 nM | CC(C)C[C@H]1NC(=O)[C@H](CCCN)NC(=O)[C@H](C(C)C)NC(=O)[C@H](Cc2ccc(-c3ccccc3)cc2)NC(=O)[C@H](C(C)C)NC(=O)[C@H](Cc2c[nH]c3ccccc23)NC(=O)[C@H](CC(=O)O)NC(=O)[C@H](Cc2ccc(O)cc2)NC(=O)[C@H](CC#N)NC(=O)CSC[C@@H](C(=O)N[C@@H](C)C(N)=O)NC(=O)[C@H](C(C)O)NC(=O)[C@H](C(C)C)NC(=O)[C@H](CC2CCCCC2)NC(=O)[C@H](CCN)NC1=O (stereo partly drawn) [Compound 2526] |
| 3.4 nM | CCC(C)[C@@H]1NC(=O)[C@H](Cc2ccc(-c3ccccc3)cc2)NC(=O)[C@H](C(C)C)NC(=O)[C@H](Cc2c[nH]c3ccccc23)NC(=O)[C@H](CC(=O)O)NC(=O)[C@H](Cc2ccc(OCC(=O)O)cc2)NC(=O)[C@H](CCN)N(C)C(=O)CSC[C@@H](C(=O)N[C@@H](C)C(N)=O)NC(=O)[C@H](CO)NC(=O)[C@H](C(C)C)NC(=O)[C@H](CC2CCCCC2)NC(=O)[C@H](CCN)NC(=O)[C@@H](CC(C)C)NC(=O)[C@H](CCCN)NC1=O (stereo partly drawn) [Compound 2517] ({CH2CO}-[NMeDab]Y(Carboxymethyl)DWV[Bip][Ile(3ξ)][Orn][dL][Dab][Cha]VSCA-NH2; thioether N-14) |
| 9.6 nM | CC(C)C[C@H]1NC(=O)[C@H](CCCN)NC(=O)[C@H](C(C)C)NC(=O)[C@H](Cc2ccc(-c3ccccc3)cc2)NC(=O)[C@H](C(C)C)NC(=O)[C@H](Cc2c[nH]c3ccccc23)NC(=O)[C@H](CC(=O)O)NC(=O)[C@H](Cc2ccc(OCC(=O)O)cc2)NC(=O)[C@@H]2CC(N)CN2C(=O)CSC[C@@H](C(=O)N[C@@H](C)C(N)=O)NC(=O)[C@H](C(C)O)NC(=O)[C@H](C(C)C)NC(=O)[C@H](CC2CCCCC2)NC(=O)[C@H](CCN)NC1=O (stereo partly drawn) [Compound 2523] |
| 31.4 nM | C#CCC(NC(=O)[C@H](CCCN)NC(=O)[C@@H]1CSCC(=O)N[C@@H](Cc2ccncc2)C(=O)N[C@@H](Cc2ccc(OCC(=O)O)cc2)C(=O)N[C@@H](CC(=O)O)C(=O)N[C@@H](Cc2c[nH]c3ccccc23)C(=O)N[C@@H](C(C)C)C(=O)N[C@@H](Cc2ccc(-c3ccccc3)cc2)C(=O)N[C@@H]([C@@H](C)CC)C(=O)N[C@@H](CCCN)C(=O)N[C@H](CC(C)C)C(=O)N[C@@H](CCN)C(=O)N[C@@H](CC(C)C)C(=O)N[C@@H](C(C)C)C(=O)N[C@@H]([C@@H](C)O)C(=O)N1)C(N)=O (stereo partly drawn) [Compound 1766] ({CH2CO}-[4Pal]Y(Carboxymethyl)DWV[Bip]I[Orn][dL][Dab]LVTC[Orn][ξPra]-NH2; thioether N-14) |
